Active and inactive are the calls of the source. The calls are words filed in the database; no cut-off is given here.
What was measured:
Bacillus subtilis [1] = assay: Antibacterial activity against Bacillus subtilis MTCC 121 at 300 ug/ml by cup plate method; assay type: functional; conditions: read-out: DIZ
Staphylococcus aureus [2] = assay: Antibacterial activity against Staphylococcus aureus MTCC 96 at 300 ug/ml by cup-plate method; assay type: functional; conditions: read-out: DIZ
Bacillus subtilis [3] = assay: Antibacterial activity against Bacillus subtilis MTCC 121 at 100 ug/ml by cup plate method; assay type: functional; conditions: read-out: DIZ
Bacillus subtilis [4] = assay: Antibacterial activity against Bacillus subtilis MTCC 121 at 50 ug/ml by cup plate method; assay type: functional; conditions: read-out: DIZ
Escherichia coli [5] = assay: Antibacterial activity against Escherichia coli MTCC 739 at 100 ug/ml by cup-plate method; assay type: functional; conditions: read-out: DIZ
Pseudomonas aeruginosa [6] = assay: Antibacterial activity against Pseudomonas aeruginosa MTCC 2453 at 300 ug/ml by cup-plate method; assay type: functional; conditions: read-out: DIZ
Staphylococcus aureus [7] = assay: Antibacterial activity against Staphylococcus aureus MTCC 96 by cup-plate method; assay type: functional, organism-based
Staphylococcus aureus [8] = assay: Antibacterial activity against Staphylococcus aureus MTCC 96 at 200 ug/ml by cup-plate method; assay type: functional; conditions: read-out: DIZ
Pseudomonas aeruginosa [9] = assay: Antibacterial activity against Pseudomonas aeruginosa MTCC 2453 at 50 ug/ml by cup-plate method; assay type: functional; conditions: read-out: DIZ
Escherichia coli [10] = assay: Antibacterial activity against Escherichia coli MTCC 739 at 300 ug/ml by cup-plate method; assay type: functional; conditions: read-out: DIZ
Pseudomonas aeruginosa [11] = assay: Antibacterial activity against Pseudomonas aeruginosa MTCC 2453 by cup-plate method; assay type: functional, organism-based
Escherichia coli [12] = assay: Antibacterial activity against Escherichia coli MTCC 739 at 50 ug/ml by cup-plate method; assay type: functional; conditions: read-out: DIZ
Bacillus subtilis [13] = assay: Antibacterial activity against Bacillus subtilis MTCC 121 by cup plate method; assay type: functional, organism-based
Bacillus subtilis [14] = assay: Antibacterial activity against Bacillus subtilis MTCC 121 at 200 ug/ml by cup plate method; assay type: functional; conditions: read-out: DIZ
Staphylococcus aureus [15] = assay: Antibacterial activity against Staphylococcus aureus MTCC 96 at 50 ug/ml by cup-plate method; assay type: functional; conditions: read-out: DIZ
Escherichia coli [16] = assay: Antibacterial activity against Escherichia coli MTCC 739 by cup-plate method; assay type: functional, organism-based
Escherichia coli [17] = assay: Antibacterial activity against Escherichia coli MTCC 739 at 200 ug/ml by cup-plate method; assay type: functional; conditions: read-out: DIZ
Pseudomonas aeruginosa [18] = assay: Antibacterial activity against Pseudomonas aeruginosa MTCC 2453 at 200 ug/ml by cup-plate method; assay type: functional; conditions: read-out: DIZ
Candida albicans = assay: Antifungal activity against Candida albicans MTCC 227 at 50 to 300 ug/ml by cup-plate method; assay type: functional, organism-based
Pseudomonas aeruginosa [19] = assay: Antibacterial activity against Pseudomonas aeruginosa MTCC 2453 at 100 ug/ml by cup-plate method; assay type: functional; conditions: read-out: DIZ
Staphylococcus aureus [20] = assay: Antibacterial activity against Staphylococcus aureus MTCC 96 at 100 ug/ml by cup-plate method; assay type: functional; conditions: read-out: DIZ

Row | Structure (SMILES) | zone of inhibition at 300 µg/mL (Bacillus subtilis [1]) [mm] | zone of inhibition at 300 µg/mL (Staphylococcus aureus [2]) [mm] | zone of inhibition at 100 µg/mL (Bacillus subtilis [3]) [mm] | zone of inhibition at 50 µg/mL (Bacillus subtilis [4]) [mm] | zone of inhibition at 100 µg/mL (Escherichia coli [5]) [mm] | zone of inhibition at 300 µg/mL (Pseudomonas aeruginosa [6]) [mm] | Activity (Staphylococcus aureus [7]) | zone of inhibition at 200 µg/mL (Staphylococcus aureus [8]) [mm] | zone of inhibition at 50 µg/mL (Pseudomonas aeruginosa [9]) [mm] | zone of inhibition at 300 µg/mL (Escherichia coli [10]) [mm] | Activity (Pseudomonas aeruginosa [11]) | zone of inhibition at 50 µg/mL (Escherichia coli [12]) [mm] | Activity (Bacillus subtilis [13]) | zone of inhibition at 200 µg/mL (Bacillus subtilis [14]) [mm] | zone of inhibition at 50 µg/mL (Staphylococcus aureus [15]) [mm] | Activity (Escherichia coli [16]) | zone of inhibition at 200 µg/mL (Escherichia coli [17]) [mm] | zone of inhibition at 200 µg/mL (Pseudomonas aeruginosa [18]) [mm] | Activity (Candida albicans) | zone of inhibition at 100 µg/mL (Pseudomonas aeruginosa [19]) [mm] | further results
1 | O=C1N/C(=N\c2cccc(Cl)c2)S/C1=C\c1ccc(Cl)cc1 | 10 | 10 | 8 | 7 | 9 | 8 | Dose-dependent effect | 9 | 7 | 9 | Dose-dependent effect | 7 | Dose-dependent effect | 10 | 7 | Dose-dependent effect | 9 | 8 | inactive | 8 | zone of inhibition at 100 µg/mL (Staphylococcus aureus [20]): 8 mm
2 | COc1cc(/C=C2\S/C(=N/c3ccc(F)c(Cl)c3)NC2=O)ccc1O | 10 | 11 | 8 | 7 | 8 | 10 | Dose-dependent effect | 9 | 7 | 9 | Dose-dependent effect | 7 | Dose-dependent effect | 8 | 7 | Dose-dependent effect | 8 | 10 | inactive | 9 | zone of inhibition at 100 µg/mL (Staphylococcus aureus [20]): 8 mm
3 | O=C1N/C(=N\c2ccc(F)c(Cl)c2)S/C1=C\c1ccccc1Cl | 14 | 14 | 12 | 10 | 8 | 12 | Dose-dependent effect | 12 | 10 | 10 | Dose-dependent effect | 8 | Dose-dependent effect | 14 | 10 | Dose-dependent effect | 9 | 12 | inactive | 10 | zone of inhibition at 100 µg/mL (Staphylococcus aureus [20]): 11 mm

Source: ChEMBL document CHEMBL3044899, “Effect of chloro and fluoro groups on the antimicrobial activity of 2,5-disubstituted 4-thiazolidinones: a comparative study” (2012)
